Measured values reported in PMC12457078, “Inhibition of soluble epoxide hydrolase in endotoxin induced pig lung injury” (Frontiers in Pharmacology, 2025).

Assay: pharmacokinetic pilot, continuous infusion in one animal
Assay type: in vivo
Conditions: pig, whole blood, intravenous, 0.1 mg/kg/h, time 240 minutes (STOP INFUSION), read-out: Conc in blood 950

`CCOCCOCCOCCCCCNC(=O)NC12CC3CC(CC(C3)C1)C2` [Compound 950] gave a concentration at 240 min of 199 ng/mL.
